This note sets out measurements from patent publication US20090105245A1, “METHODS FOR TREATING MACULAR EDEMA AND OCULAR ANGIOGENESIS USING AN ANTI-INFLAMMATORY AGENT AND A RECEPTOR TYROSINE KINASE INHIBITOR” (priority 2006, published 2009).

Common to all, as to format: in vivo
Series [1] deals with existing laser-induced choroidal neovascularization (CNV) in the mouse. Put plainly: Mouse laser-induced CNV, regression of existing CNV, intravitreal injection at 7 days post-laser. Particulars: single intravitreal injection, mouse (FIG. 4). As to the method: Methods. CNV was generated by laser-induced rupture of Bruch's membrane. Briefly, 4 to 5 week old male C57BL/6J mice were anesthetized using intraperitoneal administration of ketamine hydrochloride (100 mg/kg) and xylazine (5 mg/kg) and the pupils of both eyes dilated with topical ocular instillation of 1% tropicamide and 2.5% Mydfin®. One drop of topical cellulose (Gonioscopic®) was used to lubricate the cornea. A hand-held cover slip was applied to the cornea and used as a contact lens to aid visualization of the fundus. Three to four retinal burns were placed in randomly assigned eye (right or left eye for each mouse) using the Alcon 532 nm EyeLite laser with a slit lamp delivery system. The laser burns were used to generate a rupture in Bruch's membrane, which was indicated opthalmoscopically by the formation of a bubble under the retina. Only mice with laser burns that produced three bubbles per eye were included in the study. Burns were typically placed at the 3, 6, 9 or 12 o'clock positions in the posterior pole of the retina, avoiding the branch retinal arteries and veins. […]
METHODS: CNV was generated by laser-induced rupture of Bruch's membrane as described above in Example 3. […] Choroidal flat mounts were analyzed as described above in Example 3.

The test system of series [2] is preretinal neovascularization (NV) in the rat OIR model. In words: Rat OIR model, oral gavage. As to the method:
(§1) Immediately following euthanasia, retinas from all rat pups were harvested, fixed in 10% neutral buffered formalin for 24 hours, subjected to ADPase staining, and fixed onto slides as whole mounts. Digital images were acquired from each retinal flat mount that was adequately prepared. Computerized image analysis was used to obtain a NV clockhour score from each readable sample. Each clockhour out of 12 total per retina was assessed for the presence or absence of preretinal NV. Statistical comparisons using median scores for NV clockhours from each treatment group were utilized in nonparametric analyses. Each noninjected pup represented one NV score by taking the average value of both eyes and was used in comparisons against each dosage group. Because the pups were randomly assigned and no difference was observed between oxygen-exposed control pups from all litters, the NV scores were combined for all treatment groups. P≦0.05 was considered statistically significant.
METHODS: Pregnant Sprague-Dawley rats were received at 14 days gestation and subsequently gave birth on Day 22±1 of gestation. Immediately following parturition, pups were pooled and randomized into separate litters (n=17 pups/litter), placed into separate shoebox cages inside oxygen delivery chamber, and subjected to an oxygen-exposure profile from Day 0 to Day 14 postpartum. Litters were then placed into room air from Day 14/0 through Day 14/6 (days 14-20 postpartum). Additionally on Day 14/0, each pup was randomly assigned as oxygen-exposed controls, vehicle treated, or drug-treated at 1.5, 5, 10 mg/kg, p.o., BID. At Day 14/6 (20 days postpartum), all animals in both studies were euthanized and retina whole mounts were prepared as described in Example 1 above.

Series [3] relates to diabetes-induced retinal vascular permeability. Put plainly: STZ diabetic rat retinal vascular permeability (Evan's blue albumin permeation), oral gavage. The method, then: METHODS: Diabetes was induced in male Long-Evans rats with 65 mg/kg streptozotocin (STZ) after an overnight fast. Upon confirmation of diabetes (blood glucose >250 mg/dl), treatment was initiated by oral gavage. Non-diabetic (NDM) and diabetic (DM) rats received oral gavage of either vehicle or RTK inhibitor at 1.5 or 5 mg/kg/d BID. After 2 weeks, jugular vein catheters were implanted 1 day prior to experimentation for the infusion of indicator dye. Retinal vascular permeability, RVP, was measured using Evan's blue albumin permeation (45 mg/kg) after a 2 hour circulation period.

The subject of series [4] is preretinal neovascularization (NV) in the rat model of oxygen-induced retinopathy. Put plainly: Rat model of oxygen-induced retinopathy (OIR), single intravitreal injection.
Excerpt: METHODS: Pregnant Sprague-Dawley rats were received at 14 days gestation and subsequently gave birth on Day 22±1 of gestation. Immediately following parturition, pups were pooled and randomized into separate litters (n=17 pups/litter), placed into separate shoebox cages inside oxygen delivery chamber, and subjected to an oxygen-exposure profile from Day 0-14 postpartum. Litters were then placed into room air from Day 14/0 through Day 14/6 (days 14-20 postpartum). Additionally on Day 14/0, each pup was randomly assigned as an oxygen-exposed control or into various treatment groups. For those randomized into an injection treatment group: one eye received a 5 μl intravitreal injection of 0.1%, 0.3%, 0.6%, or 1% RTKi and the contralateral eye received a 5 μl intravitreal injection of vehicle. At Day 14/6 (20 days postpartum), all animals in both studies were euthanized.
as §1

As to `Cc1ccc(F)c(NC(=O)Nc2ccc(-c3cccc4[nH]nc(N)c34)cc2)c1` [Compound 86, N-[4-[3-amino-1H-indazol-4-yl]phenyl]-N′-(2-fluoro-5-methylphenyl)urea], the “regression of existing laser-induced CNV” value in series [1] is reported as “induces regression of existing laser-induced choroidal neovascularization (CNV)”. Further, the “decrease in NV” value in series [2] (3 mg/kg/day p.o.) is on record as “did not have a significant decrease in NV”. In series [2] (10 mg/kg/day p.o.), the “inhibition of preretinal NV vs vehicle-treated pups” value is recorded as “significant inhibition of preretinal NV”. Further, the “inhibition of preretinal NV” value in series [2] (20 mg/kg/day p.o.) is “complete inhibition of preretinal NV”. The “prevention of preretinal neovascularization (NV)” value in series [2] (oral gavage, rat OIR (FIG. 2)) is “prevents preretinal neoavascularization (NV)”. Moreover, in series [3] (DM control vs DM treatment groups), the “blood glucose levels and body weights” value was “not different between DM control and DM treatment groups”. The “tolerability, systemic or ERG side effects” value in series [3] (oral RTKi, NDM and DM groups) is “well tolerated by both NDM and DM groups with no observed systemic or ERG side effects”. Moreover, the “efficacy against preretinal NV” value in series [4] (0.1% treated eyes) was “Efficacy was not observed”. Besides, the “inhibition of preretinal NV vs vehicle-injected and control noninjected eyes” value in series [4] (0.3-1% RTKi) is given as “significant inhibition of preretinal NV”. For the same compound, the “inhibition of preretinal neovascularization (NV)” value in series [4] (single intravitreal injection, rat OIR (FIG. 1)) is “inhibits preretinal neovascularization (NV)”.
